The structures appear in SMILES notation. Bounds are passed on as bounds.

The assay relates to Wnt activity (SW480 colon carcinoma cells stably expressing the Sp5-Luc reporter gene). The experiment in a line: Sp5-Luc reporter gene screening assay for Wnt activity. To be noted: Homo sapiens. It counts as cell-based. The text has this: The screening assay for Wnt activity is described as follows. Reporter cell lines can be generated by stably transducing cancer cell lines (e.g., colon cancer) or primary cells (e.g., IEC-6 intestinal cells) with a lentiviral construct that includes a Wnt-responsive promoter driving expression of the firefly luciferase gene.
SW480 colon carcinoma cells were transduced with a lentiviral vector expressing luciferase with a human Sp5 promoter consisting of a sequence of eight TCF/LEF binding sites. SW480 cells stably expressing the Sp5-Luc reporter gene and a hygromycin resistance gene were selected by treatment with 150 μg/ml of hygromycin for 7 days. These stably transduced SW480 cells were expanded in cell culture and used for all further screening activities. For Sp5-Luc reporter gene assays, the cells were plated at 10,000 cells/well in 96-well plates with growth medium containing 10% fetal calf serum and incubated overnight at 37° C. and 5% CO2. Each compound was dissolved in DMSO as a 10 mM stock in standard j-vials and used to prepare compound source plates in dose-response format with 3-fold serial dilutions and a 10 mM top concentration. Compound transfer from serially diluted source plates to assay plates containing the cells was accomplished using a pintool (Multimek 96, Beckman equipped with V&P Scientific FP1S50H pins) based liquid handling protocol. This protocol used a slotted pin to transfer 50 nl of compound from a source plate well to an assay plate well containing 50 μl of cells in growth medium. […] Control wells received 50 nl of DMSO treatment for normalization and calculating IC50 values. The treated cells were incubated at 37° C. and 5% CO2 for an additional forty-two hours. Following incubation, the growth medium was removed and 50 μl of BrightGlo luminescence reagent (Promega) was added to each well of the 96-well assay plates. The plates were placed on an orbital shaker for 5 min and then luminescence was quantified on the Victor3 (Perkin Elmer) plate reader. Readings were normalized to DMSO only treated cells, and normalized activities were utilized for IC50 calculations using the dose-response log (inhibitor) vs. response -variable slope (four parameters) nonlinear regression feature available in GraphPad Prism 5.0 or 6.0.
Consider `COc1cc(F)cc(-c2ccnc3[nH]c(-c4n[nH]c5ncc(-c6cncc(NC(=O)CC(C)C)c6)cc45)nc23)c1` [Compound 1366, N-(5-(3-(7-(3-Fluoro-5-methoxyphenyl)-3H-imidazo[4,5-b]pyridin-2-yl)-1H-pyrazolo[3,4-b]pyridin-5-yl)pyridin-3-yl)-3-methylbutanamide], for which the IC50 turned out to be 125 nM.

Turning to `CC(C)(C)CC(=O)Nc1cncc(-c2cnc3[nH]nc(-c4nc5cccnc5[nH]4)c3c2)c1` [Compound 222, N-(5-(3-(3H-Imidazo[4,5-b]pyridin-2-yl)-1H-pyrazolo[3,4-b]pyridin-5-yl)pyridin-3-yl)-3,3-dimethylbutanamide], the IC50 was determined as 192 nM.

`FC1(F)CCN(Cc2cncc(-c3cnc4[nH]nc(-c5nc6c(-c7cccs7)ccnc6[nH]5)c4c3)c2)C1` [Compound 309, 5-(5-((3,3-Difluoropyrrolidin-1-yl)methyl)pyridin-3-yl)-3-(7-(thiophen-2-yl)-3H-imidazo[4,5-b]pyridin-2-yl)-1H-pyrazolo[3,4-b]pyridine] returned a half-inhibitory concentration (IC50) of 38 nM.

Compound `CC(C)CC(=O)Nc1cncc(-c2cnc3[nH]nc(-c4nc5c(-c6cc(F)cc(OCCN7CCCC7)c6)ccnc5[nH]4)c3c2)c1` [Compound 1278, N-(5-(3-(7-(3-Fluoro-5-(2-(pyrrolidin-1-yl)ethoxy)phenyl)-3H-imidazo[4,5-b]pyridin-2-yl)-1H-pyrazolo[3,4-b]pyridin-5-yl)pyridin-3-yl)-3-methylbutanamide] returned an IC50 of 890 nM.

`CN1CCN(c2ccnc3[nH]c(-c4n[nH]c5ncc(-c6cncc(NC(=O)C7CCCC7)c6)cc45)nc23)CC1` [Compound 204, N-(5-(3-(7-(4-Methylpiperazin-1-yl)-3H-imidazo[4,5-b]pyridin-2-yl)-1H-pyrazolo[3,4-b]pyridin-5-yl)pyridin-3-yl)cyclopentanecarboxamide] came in with an IC50 of 312 nM.

Take `Fc1ccc(-c2ccnc3[nH]c(-c4n[nH]c5ncc(-c6cncnc6)cc45)nc23)cc1` [Compound 44, 3-(7-(4-Fluorophenyl)-3H-imidazo[4,5-b]pyridin-2-yl)-5-(pyrimidin-5-yl)-1H-pyrazolo[3,4-b]pyridine]: the concentration for half-maximal inhibition (IC50) amounted to 377 nM.

Compound `Fc1cccc(-c2ccnc3[nH]c(-c4n[nH]c5ncc(-c6cncc(OCCN7CCCC7)c6)cc45)nc23)c1` [Compound 918, 3-(7-(3-Fluorophenyl)-3H-imidazo[4,5-b]pyridin-2-yl)-5-(5-(2-(pyrrolidin-1-yl)ethoxy)pyridin-3-yl)-1H-pyrazolo[3,4-b]pyridine] returned an IC50 of more than 10000 nM.

Take `CC(C)CC(=O)Nc1cncc(-c2cnc3[nH]nc(-c4nc5c(-c6cc(O)cc(F)c6)ccnc5[nH]4)c3c2)c1` [Compound 1322, N-(5-(3-(7-(3-Fluoro-5-hydroxyphenyl)-3H-imidazo[4,5-b]pyridin-2-yl)-1H-pyrazolo[3,4-b]pyridin-5-yl)pyridin-3-yl)-3-methylbutanamide]: the IC50 was determined as 395 nM.

`O=C(CC1CCCCC1)Nc1cncc(-c2cnc3[nH]nc(-c4nc5c(-c6cccc(F)c6)ccnc5[nH]4)c3c2)c1` [Compound 923, 2-Cyclohexyl-N-(5-(3-(7-(3-fluorophenyl)-3H-imidazo[4,5-b]pyridin-2-yl)-1H-pyrazolo[3,4-b]pyridin-5-yl)pyridin-3-yl)acetamide] came in with a half-inhibitory concentration (IC50) of more than 10000 nM.

As to `CN(C)c1cncc(-c2cnc3[nH]nc(-c4nc5c(-c6cccc(F)c6)ccnc5[nH]4)c3c2)c1` [Compound 5, 5-(3-(7-(3-Fluorophenyl)-3H-imidazo[4,5-b]pyridin-2-yl)-1H-pyrazolo [3,4-b]pyridin-5-yl)-N,N-dimethylpyridin-3-amine], the midpoint of inhibition, the IC50, lay at 172 nM.

For the compound `CCCCC(=O)Nc1cncc(-c2cnc3[nH]nc(-c4nc5c(-c6ccoc6)ccnc5[nH]4)c3c2)c1` [Compound 276, N-(5-(3-(7-(Furan-3-yl)-3H-imidazo[4,5-b]pyridin-2-yl)-1H-pyrazolo [3,4-b]pyridin-5-yl)pyridin-3-yl)pentanamide], half-maximal inhibition (IC50) was put at 8.1 nM.

Consider `CC(C)(C)CC(=O)Nc1cncc(-c2cnc3[nH]nc(-c4nc5c(-c6ccccc6F)ccnc5[nH]4)c3c2)c1` [Compound 57, N-(5-(3-(7-(2-Fluorophenyl)-3H-imidazo[4,5-b]pyridin-2-yl)-1H-pyrazolo[3,4-b]pyridin-5-yl)pyridin-3-yl)-3,3-dimethylbutanamide], for which the IC50 is 118 nM.

The compound `O=C(CC1CCNCC1)Nc1cncc(-c2cnc3[nH]nc(-c4nc5c(-c6cccc(F)c6)ccnc5[nH]4)c3c2)c1` [Compound 917, N-(5-(3-(7-(3-Fluorophenyl)-3H-imidazo[4,5-b]pyridin-2-yl)-1H-pyrazolo [3,4-b]pyridin-5-yl)pyridin-3-yl)-2-(piperidin-4-yl)acetamide] returned an IC50 of more than 10000 nM.

The compound `Fc1cccc(-c2ccnc3[nH]c(-c4n[nH]c5ncc(-c6cncc(OCc7ccccc7)c6)cc45)nc23)c1` [Compound 922, 5-(5-(Benzyloxy)pyridin-3-yl)-3-(7-(3-fluorophenyl)-3H-imidazo[4,5-b]pyridin-2-yl)-1H-pyrazolo[3,4-b]pyridine] displayed an IC50 of more than 10000 nM.

Consider `CC(C)CC(=O)Nc1cncc(-c2cnc3[nH]nc(-c4nc5c(-c6cc(F)cc(OCCN(C)C)c6)ccnc5[nH]4)c3c2)c1` [Compound 1234, N-(5-(3-(7-(3-(2-(Dimethylamino)ethoxy)-5-fluorophenyl)-3H-imidazo[4,5-b]pyridin-2-yl)-1H-pyrazolo[3,4-b]pyridin-5-yl)pyridin-3-yl)-3-methylbutanamide], for which half-maximal inhibition (IC50) was put at 1130 nM.

`Fc1cccc(-c2ccnc3[nH]c(-c4n[nH]c5ncc(-c6cncc(OC7CCCCC7)c6)cc45)nc23)c1` [Compound 915, 5-(5-(Cyclohexyloxy)pyridin-3-yl)-3-(7-(3-fluorophenyl)-3H-imidazo[4,5-b]pyridin-2-yl)-1H-pyrazolo[3,4-b]pyridine] gave an IC50 of more than 10000 nM.

Take `CN(C)c1cncc(-c2cnc3[nH]nc(-c4nc5c(-c6cccs6)ccnc5[nH]4)c3c2)c1` [Compound 291, N,N-Dimethyl-5-(3-(7-(thiophen-2-yl)-3H-imidazo[4,5-b]pyridin-2-yl)-1H-pyrazolo[3,4-b]pyridin-5-yl)pyridin-3-amine]: half-maximal inhibition (IC50) required 43.8 nM.

Compound `Fc1cccc(-c2ccnc3[nH]c(-c4n[nH]c5ncc(-c6cncc(CN7CCC(F)(F)C7)c6)cc45)nc23)c1` [Compound 21, 5-(5-((3,3-Difluoropyrrolidin-1-yl)methyl)pyridin-3-yl)-3-(7-(3-fluorophenyl)-3H-imidazo[4,5-b]pyridin-2-yl)-1H-pyrazolo[3,4-b]pyridine] returned an IC50 of 35.8 nM.

As for `NC1CN(c2cncc(-c3cnc4[nH]nc(-c5nc6c(-c7cccc(F)c7)ccnc6[nH]5)c4c3)n2)C1` [Compound 914, 1-(6-(3-(7-(3-Fluorophenyl)-3H-imidazo[4,5-b]pyridin-2-yl)-1H-pyrazolo [3,4-b]pyridin-5-yl)pyrazin-2-yl)azetidin-3-amine], the IC50 turned out to be 1020 nM.

Compound `CN1CCN(c2ccnc3[nH]c(-c4n[nH]c5ncc(-c6cncnc6)cc45)nc23)CC1` [Compound 209, 3-(7-(4-Methylpiperazin-1-yl)-3H-imidazo[4,5-b]pyridin-2-yl)-5-(pyrimidin-5-yl)-1H-pyrazolo[3,4-b]pyridine] displayed an IC50 of more than 10000 nM.

For the origin of these results see patent publication US10526347B2, “3-(3H-imidazo[4,5-B]pyridin-2-yl)-1H-pyrazolo[3,4-B]pyridine and therapeutic uses thereof” (Samumed, LLC, priority 2014, dated 2020).
